Data published in ChEMBL document CHEMBL3102853, “Carbonic anhydrase inhibitors. Synthesis, and molecular structure of novel series N-substituted N'-(2-arylmethylthio-4-chloro-5-methylbenzenesulfonyl)guanidines and their inhibition of human cytosolic isozymes I and II and the transmembrane tumor-associated isozymes IX and XII” (Eur J Med Chem, 2014).

Experiments:
Format in all cases: functional
[1] = test system: MCF7; experiment: Cytotoxicity against human MCF7 cells at 10 uM; details: read-out: GI
[2] = test system: HCC 2998; experiment: Cytotoxicity against human HCC2998 cells
[3] = Cytotoxicity against human Hs 578T cells
[4] = test system: A498; experiment: Cytotoxicity against human A498 cells at 10 uM; details: read-out: GI
[5] = test system: NCI-H522; experiment: Cytotoxicity against human NCI-H522 cells
[6] = Cytotoxicity against human Hs 578T cells at 10 uM; details: read-out: GI
[7] = test system: SNB-75; experiment: Cytotoxicity against human SNB75 cells
[8] = test system: UACC-62; experiment: Cytotoxicity against human UACC62 cells
[9] = test system: NCI-H460; experiment: Cytotoxicity against human NCI-H460 cells
[10] = test system: HOP-92; experiment: Cytotoxicity against human HOP92 cells
[11] = test system: COLO 205; experiment: Cytotoxicity against human COLO205 cells
[12] = test system: OVCAR-8; experiment: Cytotoxicity against human OVCAR8 cells
[13] = test system: HL-60(TB); experiment: Cytotoxicity against human HL-60(TB) cells
[14] = test system: RPMI-8226; experiment: Cytotoxicity against human RPMI8226 cells
[15] = test system: MOLT-4; experiment: Cytotoxicity against human MOLT4 cells at 10 uM; details: read-out: GI
[16] = test system: DU-145; experiment: Cytotoxicity against human DU145 cells at 10 uM; details: read-out: GI
[17] = Cytotoxicity against human NCI-ADR-RES cells at 10 uM; details: read-out: GI
[18] = test system: HT-29; experiment: Cytotoxicity against human HT-29 cells at 10 uM; details: read-out: GI
[19] = test system: SNB-19; experiment: Cytotoxicity against human SNB19 cells
[20] = test system: A549; experiment: Cytotoxicity against human A549 cells at 10 uM; details: read-out: GI
[21] = test system: A498; experiment: Cytotoxicity against human A498 cells
[22] = test system: MOLT-4; experiment: Cytotoxicity against human MOLT4 cells
[23] = test system: T47D; experiment: Cytotoxicity against human T47D cells at 10 uM; details: read-out: GI
[24] = test system: SK-MEL-28; experiment: Cytotoxicity against human SK-MEL-28 cells
[25] = Cytotoxicity against human OVCAR4 cells
[26] = test system: SF-539; experiment: Cytotoxicity against human SF539 cells
[27] = test system: HOP-92; experiment: Cytotoxicity against human HOP92 cells at 10 uM; details: read-out: GI
[28] = test system: SNB-75; experiment: Cytotoxicity against human SNB75 cells at 10 uM; details: read-out: GI
[29] = test system: OVCAR-3; experiment: Cytotoxicity against human OVCAR3 cells at 10 uM; details: read-out: GI
[30] = test system: LOX IMVI; experiment: Cytotoxicity against human LOXIMVI cells
[31] = test system: MCF7; experiment: Cytotoxicity against human MCF7 cells
[32] = test system: SW-620; experiment: Cytotoxicity against human SW620 cells at 10 uM; details: read-out: GI
[33] = test system: SK-MEL-2; experiment: Cytotoxicity against human SK-MEL-2 cells
[34] = test system: RPMI-8226; experiment: Cytotoxicity against human RPMI8226 cells at 10 uM; details: read-out: GI
[35] = test system: SK-MEL-2; experiment: Cytotoxicity against human SK-MEL-2 cells at 10 uM; details: read-out: GI
[36] = test system: SR; experiment: Cytotoxicity against human SR cells at 10 uM; details: read-out: GI
[37] = test system: K562; experiment: Cytotoxicity against human K562 cells
[38] = test system: IGROV-1; experiment: Cytotoxicity against human IGROV1 cells
[39] = test system: PC-3; experiment: Cytotoxicity against human PC3 cells
[40] = test system: SF-268; experiment: Cytotoxicity against human SF268 cells
[41] = test system: T47D; experiment: Cytotoxicity against human T47D cells
[42] = test system: PC-3; experiment: Cytotoxicity against human PC3 cells at 10 uM; details: read-out: GI
[43] = test system: NCI-H460; experiment: Cytotoxicity against human NCI-H460 cells at 10 uM; details: read-out: GI
[44] = test system: MDA-MB-435; experiment: Cytotoxicity against human MDA-MB-435 cells
[45] = test system: SF-268; experiment: Cytotoxicity against human SF268 cells at 10 uM; details: read-out: GI
[46] = test system: LOX IMVI; experiment: Cytotoxicity against human LOXIMVI cells at 10 uM; details: read-out: GI
[47] = test system: OVCAR-3; experiment: Cytotoxicity against human OVCAR3 cells
[48] = test system: SR; experiment: Cytotoxicity against human SR cells
[49] = test system: KM12; experiment: Cytotoxicity against human KM12 cells
[50] = test system: HCT-116; experiment: Cytotoxicity against human HCT116 cells
[51] = test system: M14; experiment: Cytotoxicity against human M14 cells
[52] = test system: MDA-MB-231; experiment: Cytotoxicity against human MDA-MB-231 cells
[53] = test system: MDA-MB-468; experiment: Cytotoxicity against human MDA-MB-468 cells
[54] = test system: UACC-62; experiment: Cytotoxicity against human UACC62 cells at 10 uM; details: read-out: GI
[55] = test system: MDA-MB-468; experiment: Cytotoxicity against human MDA-MB-468 cells at 10 uM; details: read-out: GI
[56] = test system: KM12; experiment: Cytotoxicity against human KM12 cells at 10 uM; details: read-out: GI
[57] = test system: BT-549; experiment: Cytotoxicity against human BT549 cells
[58] = test system: HL-60(TB); experiment: Cytotoxicity against human HL-60(TB) cells at 10 uM; details: read-out: GI
[59] = test system: Malme-3M; experiment: Cytotoxicity against human MALME-3M cells
[60] = test system: CCRF-CEM; experiment: Cytotoxicity against human CCRF-CEM cells
[61] = Cytotoxicity against human UACC257 cells
[62] = read-out: LC50 (the source's name)

## Cc1cc(S(=O)(=O)NC(=N)NCc2ccc(S(N)(=O)=O)cc2)c(SCc2ccc(C(F)(F)F)cc2)cc1Cl
[1]
  inhibition of growth at 10 µM: 47%
[2]
  GI50: 3.1 µM
  TGI: 10.4 µM
[2]; [62]
  CC50: 41.7 µM
[3]
  GI50: 4.6 µM
  TGI: 24.1 µM
[3]; [62]
  CC50: > 100 µM
[4]
  inhibition of growth at 10 µM: 63%
[5]
  GI50: 4.6 µM
  TGI: 16.8 µM
[5]; [62]
  CC50: 42.3 µM
[6]
  inhibition of growth at 10 µM: 68%
[7]
  GI50: 3 µM
  TGI: 15.9 µM
[7]; [62]
  CC50: 56.4 µM
[8]
  GI50: 2.6 µM
  TGI: 9.1 µM
[8]; [62]
  CC50: 32 µM
[9]
  GI50: 3.8 µM
  TGI: 15.7 µM
[9]; [62]
  CC50: 63.9 µM
[10]
  GI50: 2.9 µM
  TGI: 8.3 µM
[10]; [62]
  CC50: 32.4 µM
[11]
  GI50: 3.5 µM
  TGI: 11.4 µM
[11]; [62]
  CC50: 58.1 µM
[12]
  GI50: 5 µM
  TGI: 21 µM
[12]; [62]
  CC50: 70.2 µM
[13]
  GI50: 2.4 µM
  TGI: 6.4 µM
[13]; [62]
  CC50: 54.4 µM
[14]
  GI50: 2.8 µM
  TGI: 9.1 µM
[14]; [62]
  CC50: 98.6 µM
[15]
  inhibition of growth at 10 µM: 48%
[16]
  inhibition of growth at 10 µM: 57%
[17]
  inhibition of growth at 10 µM: 64%
[18]
  inhibition of growth at 10 µM: 79%
[19]
  GI50: 5 µM
  TGI: 19.3 µM
[19]; [62]
  CC50: 54.4 µM
[20]
  inhibition of growth at 10 µM: 60%
[21]
  GI50: 3.1 µM
  TGI: 17.3 µM
[21]; [62]
  CC50: 46.5 µM
[22]
  GI50: 3 µM
  TGI: 10.5 µM
[22]; [62]
  CC50: > 100 µM
[23]
  inhibition of growth at 10 µM: 30%
[24]
  GI50: 3.6 µM
  TGI: 14 µM
[24]; [62]
  CC50: 44.3 µM
[25]; OVCAR-4
  GI50: 4.2 µM
  TGI: 20.3 µM
[25]; OVCAR-4, read-out: LC50 (the source's name)
  CC50: 75.9 µM
[26]
  GI50: 5.2 µM
  TGI: 17.9 µM
[26]; [62]
  CC50: 44.8 µM
[27]
  inhibition of growth at 10 µM: 89%
[28]
  inhibition of growth at 10 µM: 68%
[29]
  inhibition of growth at 10 µM: 1%
[30]
  GI50: 6.1 µM
  TGI: 20.5 µM
[30]; [62]
  CC50: 54.3 µM
[31]
  GI50: 3.3 µM
  TGI: 13.6 µM
[31]; [62]
  CC50: 67.1 µM
[32]
  inhibition of growth at 10 µM: 68%
[33]
  GI50: 2.5 µM
  TGI: 6.2 µM
[33]; [62]
  CC50: 22.2 µM
[34]
  inhibition of growth at 10 µM: 58%
[35]
  inhibition of growth at 10 µM: 94%
[36]
  inhibition of growth at 10 µM: 17%
[37]
  GI50: 3.7 µM
  TGI: 25.3 µM
[37]; [62]
  CC50: > 100 µM
[38]
  GI50: 4.9 µM
  TGI: 17.7 µM
[38]; [62]
  CC50: 64.8 µM
[39]
  GI50: 3.3 µM
  TGI: 12.8 µM
[39]; [62]
  CC50: 43.2 µM
[40]
  GI50: 4.8 µM
  TGI: 18.5 µM
[40]; [62]
  CC50: 55.8 µM
[41]
  GI50: 4.7 µM
  TGI: 20.7 µM
[41]; [62]
  CC50: 84.4 µM
[42]
  inhibition of growth at 10 µM: 83%
[43]
  inhibition of growth at 10 µM: 53%
[44]
  GI50: 3.8 µM
  TGI: 12.5 µM
[44]; [62]
  CC50: 41.9 µM
[45]
  inhibition of growth at 10 µM: 69%
[46]
  inhibition of growth at 10 µM: 67%
[47]
  GI50: 4.3 µM
  TGI: 15.4 µM
[47]; [62]
  CC50: 41 µM
[48]
  GI50: 2.4 µM
  TGI: 6.8 µM
[48]; [62]
  CC50: > 100 µM
[49]
  GI50: 3.1 µM
  TGI: 10.1 µM
[49]; [62]
  CC50: 41.7 µM
[50]
  GI50: 4.1 µM
  TGI: 15.9 µM
[50]; [62]
  CC50: 46.6 µM
[51]
  GI50: 4.5 µM
  TGI: 16.8 µM
[51]; [62]
  CC50: 49.6 µM
[52]
  GI50: 3.1 µM
  TGI: 8.9 µM
[52]; [62]
  CC50: 34.5 µM
[53]
  GI50: 2.9 µM
  TGI: 13.8 µM
[53]; [62]
  CC50: 66.4 µM
[54]
  inhibition of growth at 10 µM: 59%
[55]
  inhibition of growth at 10 µM: 37%
[56]
  inhibition of growth at 10 µM: 89%
[57]
  GI50: 4.4 µM
  TGI: 12.9 µM
[57]; [62]
  CC50: 46.9 µM
[58]
  inhibition of growth at 10 µM: 83%
[59]
  GI50: 3.8 µM
  TGI: 16.3 µM
[59]; [62]
  CC50: 49.5 µM
[60]
  GI50: 3.5 µM
  TGI: 13.4 µM
[60]; [62]
  CC50: 85.3 µM
[61]; UACC-257
  GI50: 3.7 µM
  TGI: 14.7 µM
[61]; UACC-257, read-out: LC50 (the source's name)
  CC50: 39.4 µM
